From PubChem BioAssay (NCI)
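A five-concentration, 48-hour dose response in 96-well plates underlies each endpoint, interpolated linearly between surrounding concentrations. GI50 marks 50% less growth. TGI denotes the concentration required for complete inhibition of growth.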

How the values were obtained:
Assay in all cases: inhibition of tumour cell growth, NCI panel, 48 h
MALME-3M melanoma = system: MALME-3M melanoma
SK-MEL-28 melanoma = system: SK-MEL-28 melanoma
SK-OV-3 ovarian = system: SK-OV-3 ovarian
HCT-15 colon = system: HCT-15 colon
NCI-H23 lung = system: NCI-H23 lung
BT-549 breast = system: BT-549 breast
HCT-116 colon = system: HCT-116 colon
IGROV1 ovarian = system: IGROV1 ovarian
A549 NSCLC = system: A549 NSCLC
SNB-19 CNS = system: SNB-19 CNS

Row | SMILES | GI50 (MALME-3M melanoma) | TGI (MALME-3M melanoma) | GI50 (SK-MEL-28 melanoma) | TGI (SK-MEL-28 melanoma) | GI50 (SK-OV-3 ovarian) | TGI (SK-OV-3 ovarian) | GI50 (HCT-15 colon) | TGI (HCT-15 colon) | GI50 (NCI-H23 lung) | TGI (NCI-H23 lung) | GI50 (BT-549 breast) | TGI (BT-549 breast) | GI50 (HCT-116 colon) | TGI (HCT-116 colon) | GI50 (IGROV1 ovarian) | TGI (IGROV1 ovarian) | GI50 (A549 NSCLC) | TGI (A549 NSCLC) | GI50 (SNB-19 CNS) | TGI (SNB-19 CNS)
1 | NCCOCCOCCNc1nc(Cc2ccccc2)nc(NCCCN2CCCC2=O)n1 | > 100 µM | > 100 µM | > 100 µM | > 100 µM | > 100 µM | > 100 µM | > 100 µM | > 100 µM | > 100 µM | > 100 µM | > 100 µM | > 100 µM | > 100 µM | > 100 µM | > 100 µM | > 100 µM | > 100 µM | > 100 µM |  | 
2 | CC(C)c1cc(-c2n[nH]c(=O)n2-c2ccc3c(ccn3C)c2)c(O)cc1O | < 0.0167 µM | < 0.031 µM | < 0.0215 µM | 17.2 µM | < 0.0132 µM | > 43.5 µM | < 0.02 µM | > 47.7 µM | 0.0247 µM | 26.7 µM | 1.87 µM | 44.3 µM | < 0.0141 µM | 13.5 µM | < 0.0225 µM | 24.8 µM | < 0.0204 µM | > 71.3 µM | < 0.0236 µM | > 48.5 µM
3 | CCc1nccc2c1nc(-c1nonc1N)n2CC | > 25 µM | > 25 µM | > 25 µM | > 25 µM | > 25 µM | > 25 µM | > 25 µM | > 25 µM | > 25 µM | > 25 µM | > 23.3 µM | > 25 µM | 20.4 µM | > 25 µM | 16.8 µM | > 25 µM | > 25 µM | > 25 µM | > 25 µM | > 25 µM
4 | CCCCCCCCCCC(C(=O)O)C1(C(=O)O)CCC(=O)O1 (stereo unspecified) |  |  |  | > 100 µM |  | > 100 µM |  | > 100 µM |  | > 100 µM |  | > 100 µM |  | > 100 µM |  | > 100 µM |  | > 100 µM |  | > 100 µM
5 | CC1(C)CC(=O)c2c(C(F)(F)F)nn(-c3ccc(C(N)=O)c(NC4CCC(OC(=O)CN)CC4)c3)c2C1 (stereo unspecified) | 0.0468 µM | > 100 µM | 0.0522 µM | 20.6 µM | 0.0238 µM | > 100 µM | 0.12 µM | > 93.6 µM | 0.0935 µM | > 100 µM | 5.24 µM | 41.7 µM | 0.0405 µM | 31.6 µM | 0.0422 µM | > 39.2 µM | 0.0666 µM | 32.8 µM | 0.142 µM | > 100 µM
6 | Cc1cc(N(CCCl)CCCl)ccc1C=Nc1ccc(-c2csc(Cc3ccccc3)n2)cc1 | 16.4 µM | 33.2 µM | 17.9 µM | 63.1 µM | 11.8 µM | 50.1 µM | 15.2 µM | > 79.9 µM | 8.96 µM | 44.1 µM | 13.4 µM | 42.4 µM | 13.6 µM | 40.3 µM | 24.2 µM | > 100 µM | 5.41 µM | > 62.4 µM | 16.8 µM | > 100 µM
7 | CCCC(=O)OC1C(C(O)CO)OC2OC(C)(C)OC21 (stereo unspecified) |  | > 100 µM |  | > 100 µM |  | > 100 µM |  | > 100 µM |  | > 100 µM |  | > 100 µM |  | > 100 µM |  | > 100 µM |  | > 100 µM |  | > 100 µM
8 | COc1cc(/C=C/c2cc(O)c3cc(C(C)=O)c(=O)oc3c2)cc2c1O[C@]1(C)CC[C@@H](O)C(C)(C)[C@H]1C2 |  | > 33 µM |  | > 21.4 µM | > 20.6 µM | > 64 µM |  | > 31.8 µM | > 22.2 µM | > 55 µM |  | > 61.2 µM | > 19.7 µM | > 52.3 µM | > 25.9 µM | > 66.1 µM | > 24.2 µM | > 53.2 µM | > 21.9 µM | > 95.4 µM
9 | Cn1cccc1-c1cc(-c2cccs2)nc(N)c1C#N | > 100 µM | > 100 µM | > 100 µM | > 100 µM | > 100 µM | > 100 µM | > 100 µM | > 100 µM | > 100 µM | > 100 µM | > 100 µM | > 100 µM | > 100 µM | > 100 µM | > 100 µM | > 100 µM | > 100 µM | > 100 µM | > 100 µM | > 100 µM
10 | CC(CCC(=O)O)[C@H]1CCC2[C@@H]3CC[C@@H]4CC(O)CC[C@]4(C)C3CC[C@@]21C (stereo partly specified) | > 100 µM | > 100 µM | 54.4 µM | > 100 µM |  |  | 46.4 µM | > 100 µM | 15.6 µM | 37.9 µM | 53.9 µM | > 100 µM | 30.4 µM | > 100 µM | 40.7 µM | > 100 µM | 25.3 µM | > 100 µM | 56.5 µM | > 100 µM
11 | COc1ccc2c(c1)/C(=C\c1c(C)nc3sccn13)C(=O)N2 | < 0.0478 µM | 97.4 µM | 66.3 µM | > 100 µM |  | > 38.3 µM | < 0.0468 µM | > 27.1 µM | 0.382 µM | > 100 µM |  | > 82.9 µM |  | > 31.8 µM | < 0.0252 µM | 3.69 µM | 0.155 µM | > 100 µM | 0.525 µM | > 100 µM
12 | O=C(O)/C=C\C(=O)N1C/C(=C\c2ccccc2Cl)C(=O)/C(=C/c2ccccc2Cl)C1 | 3.96 µM | 18.4 µM | 2.88 µM | 9.09 µM | 4.74 µM | 15.2 µM | 2.3 µM | 6.44 µM | 2.5 µM | 6.41 µM | 2.06 µM | 4.11 µM | 1.6 µM | 3.45 µM | 3.66 µM | 11.2 µM | 3.01 µM | 13 µM | 1.98 µM | 5.34 µM
13 | O=C(/C=C/c1ccccc1)c1cc(Br)ccc1O |  |  |  | 31.5 µM |  | 38.1 µM |  | 34.9 µM |  | 31.4 µM |  | 33 µM |  | 32.3 µM |  | 25 µM |  | 52.2 µM |  | 35.8 µM
14 | O=C1CC(c2ccc(O)cc2)C2(O1)C(=O)OC(C(O)CO)C2O (stereo unspecified) |  | > 100 µM |  | > 100 µM |  | > 100 µM |  | > 100 µM |  | > 100 µM |  | > 100 µM |  | > 100 µM |  | > 100 µM |  |  |  | > 100 µM
15 | Cc1ccccc1[P+](Cc1ccccc1)(c1ccccc1)c1ccccc1 |  |  | 2.91 µM | 37.9 µM | 5.28 µM | > 100 µM | 23.5 µM | > 100 µM |  |  | 2.4 µM | 11.5 µM | 1.92 µM | > 100 µM | 1.8 µM | 32.1 µM | 3.07 µM | > 100 µM | 2.8 µM | > 100 µM
16 | C[C@@H]1C[C@H]2CC[C@H](O2)[C@H](C)C(=O)O[C@@H](C)C[C@@H]2CC[C@@H](O2)[C@@H](C)C(=O)O[C@H](C)C[C@H]2CC[C@H](O2)[C@H](C)C(=O)O[C@@H](C)C[C@@H]2CC[C@@H](O2)[C@@H](C)C(=O)O1 |  | 2.67 µM |  | > 100 µM |  | 0.567 µM |  | > 100 µM |  |  |  | > 100 µM |  | > 100 µM |  | 32.4 µM |  | > 100 µM |  | > 100 µM
17 | COc1ccc(-c2nn3c(-c4cc(F)c(Cl)cc4Cl)nnc3s2)cc1 | 26.8 µM | > 100 µM | 25.8 µM | > 100 µM | 21.4 µM | > 100 µM | 18.1 µM | > 100 µM | 29.9 µM | > 100 µM | 24.4 µM | 69.7 µM | 20.8 µM | 52.9 µM |  |  | 39.1 µM | > 100 µM | 39.4 µM | > 100 µM
18 | O=C1/C(=C\c2c[nH]c3ccccc23)c2ccccc2N1c1c(Cl)cccc1Cl |  |  | 2.14 µM | 3.8 µM | 2.13 µM | 5.27 µM | 1.16 µM | 2.92 µM | 1.66 µM | 3.38 µM | 1.6 µM | 4.07 µM | 1.3 µM | 2.56 µM | 1.19 µM | 3.18 µM | 2.62 µM | 7.79 µM | 2.77 µM | 13.5 µM
19 | CCCCCCCCCCCCCCCCN1CC2CCCCC2C1 (stereo unspecified) | 16.9 µM | 35.3 µM |  |  | 12.5 µM | 29.7 µM | 6.79 µM | 61.2 µM | 3.14 µM | 9.94 µM | 11.3 µM | 24.6 µM | 2.97 µM | 10.8 µM | 3.58 µM | 12.2 µM | 4.09 µM | 17 µM | 7 µM | 27.7 µM
20 | COc1ccc(-c2ccc(/C=N/n3c(COc4ccc(Cl)cc4Cl)nn(CN4CCOCC4)c3=S)o2)c([N+](=O)[O-])c1 | 24.6 µM | 52.7 µM | 27.7 µM | 86.8 µM | 10.8 µM | 52.1 µM | 26.9 µM | > 100 µM | 22.5 µM | 66.7 µM | 13.2 µM | 44.6 µM | 16.5 µM | 30.1 µM |  |  | 24.1 µM | > 100 µM | 28.7 µM | > 100 µM
21 | CCCCCCCCN=C(N)c1ccc(N2CCN(c3ccc(C(N)=NCCCCCCCC)cc3)CC2)cc1 |  |  | 2.74 µM | 17.2 µM | 1.76 µM | 10.2 µM | 1.79 µM | 7.2 µM | 1.52 µM | 6.49 µM | 1.41 µM | 3.82 µM | 1.64 µM | 5.99 µM | 1.62 µM | > 50 µM | 1.67 µM | 9.08 µM | 2.16 µM | 14.6 µM
